Measurements reported in ChEMBL document CHEMBL1122023, “Potential antitumor agents. 36. Quantitative relationships between experimental antitumor activity, toxicity, and structure for the general class of 9-anilinoacridine antitumor agents” (J Med Chem, 1982).

Experiment: physchem
Description: Ionization constant (pKa)

SMILES	pKa
COc1cc(NS(C)(=O)=O)ccc1Nc1c2ccccc2nc2cccnc12	7.19
CS(=O)(=O)Nc1ccc(Nc2c3ccccc3nc3c(CO)cccc23)cc1	6.68
COc1cc(NS(C)(=O)=O)ccc1Nc1c2ccccc2nc2c(OC3OC(CO)C(O)C(O)C3NC(C)=O)cccc12 (stereo not drawn)	6.35
Cc1ccc2c(Nc3ccc(NS(C)(=O)=O)cc3)c3ccc([N+](=O)[O-])cc3nc2c1	5.81
CS(=O)(=O)Nc1ccc(NS(C)(=O)=O)c(Nc2c3ccccc3nc3ccccc23)c1	6.02
COc1cc(NS(=O)(=O)OC)ccc1Nc1c2ccccc2nc2c(CCC(N)=O)cccc12	7.15
CN(C)c1ccc2nc3ccccc3c(Nc3ccc(NS(C)(=O)=O)cc3)c2c1	7.27
CS(=O)(=O)Nc1ccc(Nc2c3ccccc3nc3ccccc23)cc1[N+](=O)[O-]	5.42
COc1cc(NS(C)(=O)=O)ccc1Nc1c2ccccc2nc2ccncc12	5.94
COc1cc(NS(C)(=O)=O)ccc1Nc1c2cccc(C)c2nc2c(C)cccc12	6.91
COc1cc(NS(C)(=O)=O)ccc1Nc1c2ccccc2nc2cc(CCC(N)=O)ccc12	7.5
COc1cc(NS(C)(=O)=O)ccc1Nc1c2ccc(I)cc2nc2ccc(N)cc12	6.72
COc1cc(NS(C)(=O)=O)ccc1N=c1c2ccccc2[nH]c2ccc(C(N)=O)cc12	6.59
COc1cc(NS(C)(=O)=O)ccc1Nc1c2ccc([N+](=O)[O-])cc2nc2c(OC)cccc12	5.68
COc1ccc2nc3cc(Cl)ccc3c(Nc3ccc(NS(C)(=O)=O)cc3OC)c2c1	6.52
CNc1ccc2c(Nc3ccc(NS(C)(=O)=O)cc3OC)c3ccccc3nc2c1	9.5
COc1cc(NS(C)(=O)=O)ccc1Nc1c2ccccc2nc2c(C)c(C)ccc12	7.65
COc1cc(NS(C)(=O)=O)ccc1Nc1c2ccccc2nc2cc(Br)c(N)cc12	7.01
COc1cc(NS(C)(=O)=O)ccc1Nc1c2ccccc2nc2cc(C(C)(C)C)ccc12	7.64
CCC(=O)Nc1ccc2c(Nc3ccc(NS(C)(=O)=O)cc3)c3ccccc3nc2c1	7.35
COc1cc(NS(C)(=O)=O)ccc1Nc1c2ccccc2nc2c(OCC(O)CO)cccc12 (stereo in doubt; 303)	7

SMILES	pKa
COc1cc(NS(C)(=O)=O)ccc1Nc1c2ccc(C)cc2nc2c(C)cccc12	7.67
COc1cc(NS(C)(=O)=O)ccc1Nc1c2ccc(Cl)cc2nc2cc(Cl)ccc12	6.18
COc1cc(NS(C)(=O)=O)ccc1Nc1c2ccc(Cl)cc2nc2c(OC)cccc12	6.79
COc1cc(NS(C)(=O)=O)ccc1Nc1c2cccc(OC)c2nc2c(OC)cccc12	6.9
CS(=O)(=O)Nc1ccc(Nc2c3ccccc3nc3cc(Cl)c(N)cc23)cc1	6.71
COc1cc(NS(C)(=O)=O)ccc1Nc1c2ccccc2nc2cc(NC(C)=O)ccc12	7.77
CS(=O)(=O)Nc1ccc(Nc2c3ccccc3nc3cc(F)ccc23)cc1	6.77
COc1cc(NS(C)(=O)=O)ccc1Nc1c2ccccc2nc2ccc([N+](=O)[O-])cc12	5.63
CCCNc1ccc(Nc2c3ccccc3nc3ccccc23)cc1	8.24
COc1ccccc1Nc1c2ccccc2nc2ccc(C(C)C)c(NS(C)(=O)=O)c12	7.4
COc1ccc2c(Nc3ccc(NS(C)(=O)=O)cc3)c3ccc(Cl)cc3nc2c1	6.91
CCc1ccc2nc3ccccc3c(Nc3ccc(NS(C)(=O)=O)cc3OC)c2c1	7.46
Cc1cc(NS(C)(=O)=O)ccc1Nc1c2ccccc2nc2c(C)cccc12	7.39
COc1cc(NS(C)(=O)=O)ccc1Nc1c2ccccc2nc2c(C(=O)NCCO)cccc12	6.34
CCc1cccc2c(Nc3ccc(NS(C)(=O)=O)cc3)c3ccccc3nc12	7.14
CN(C)/N=N/c1ccc2c(Nc3ccc(NS(C)(=O)=O)cc3)c3ccccc3nc2c1	7.13
COc1cc(NS(C)(=O)=O)ccc1Nc1c2ccc(N)cc2nc2c(C)cccc12	9.88
COc1cc(NS(C)(=O)=O)ccc1Nc1c2ccccc2nc2ccc(Cl)cc12	6.69
COc1cc(NS(C)(=O)=O)ccc1Nc1c2ccc(N=[N+]=[N-])cc2nc2c(C)cccc12	7.22
COc1cc(NS(C)(=O)=O)ccc1Nc1c2ccccc2nc2cc(N)ccc12	7.36
COc1cc(NS(C)(=O)=O)ccc1Nc1c2ccccc2nc2c(C)c(Cl)ccc12	6.71

SMILES	pKa
Cc1cc(NS(C)(=O)=O)ccc1Nc1c2ccccc2nc2ccccc12	7.36
COc1cc(NS(C)(=O)=O)ccc1Nc1c2ccc(I)cc2nc2c(OC)cccc12	6.74
CCCCOc1cccc2c(Nc3ccc(NS(C)(=O)=O)cc3OC)c3ccccc3nc12	7.34
CCCC(=O)Nc1ccc2c(Nc3ccc(NS(C)(=O)=O)cc3)c3ccccc3nc2c1	7.37
COc1cc(NS(C)(=O)=O)ccc1Nc1c2ccccc2nc2cccc(C)c12	6.71
CCCOc1cccc2c(Nc3ccc(NS(C)(=O)=O)cc3OC)c3ccccc3nc12	7.36
COc1cc(NS(C)(=O)=O)ccc1Nc1c2ccccc2nc2cc(C(F)(F)F)c(N)cc12	6.56
COc1cc(NS(C)(=O)=O)ccc1Nc1c2ccc(Br)cc2nc2cc(Br)ccc12	6.17
O=[N+]([O-])c1ccc2nc3ccccc3c(Nc3ccccc3)c2c1	6.26
COc1cc(NS(C)(=O)=O)ccc1N=c1c2ccccc2[nH]c2ccc(C(C)(C)C)cc12	7.38
COc1cc(NS(C)(=O)=O)ccc1Nc1c2ccc(C)cc2nc2cc([N+](=O)[O-])ccc12	6.03
COc1cc(NS(C)(=O)=O)ccc1Nc1c2ccccc2nc2cc(S(C)(=O)=O)ccc12	5.87
Cc1ccc2c(Nc3ccc(NS(C)(=O)=O)cc3)c3cccc(C)c3nc2c1	7.46
COc1ccc2[nH]c3ccccc3c(=Nc3ccc(NS(C)(=O)=O)cc3OC)c2c1	7.1
COc1cc(NS(C)(=O)=O)ccc1Nc1c2ccc(I)cc2nc2c(OCC(O)CO)cccc12 (stereo not drawn)	6.7
CS(=O)(=O)Nc1ccc(Nc2c3ccc(Cl)cc3nc3ccc(N)cc23)cc1	6.56
COc1cc(NS(C)(=O)=O)ccc1Nc1c2ccc([N+](=O)[O-])cc2nc2cc([N+](=O)[O-])ccc12	3.82
COS(=O)(=O)Nc1ccc(Nc2c3ccccc3nc3cc(Cl)ccc23)cc1	6.57
COc1cc(NS(C)(=O)=O)ccc1Nc1c2ccccc2nc2cccc([N+](=O)[O-])c12	4.98
CC(=O)Nc1ccc2c(Nc3ccc(NS(C)(=O)=O)cc3)c3ccc(NC(C)=O)cc3nc2c1	7.55
COc1cc(NS(C)(=O)=O)ccc1Nc1c2ccccc2nc2cc(N=[N+]=[N-])ccc12	7.26
